According to patent publication US6808876B1, “Cellular regulators of infectious agents and methods of use” (Immusol, Inc., priority 2000, dated 2004):

Key:
[1] = molecular target: Herpes simplex virus thymidine kinase (HSV-tk) (Human herpesvirus 1, UniProt P0DTH5); details: cited from earlier work
HeLa 5′tk cells = assay: GCV-mediated cell killing of HSV-tk expressing HeLa 5′tk cells; assay type: cell-based
Description: The Hela cell line used in these experiments was modified with a bicistronic reporter gene that confers hygromycin B resistance and GCV […]. The bicistronic reporter gene pHyg-5′tk was constructed with the SV40 promoter driving the expression of hygromycin B phosphotransferase and the 5′ untranslated region of HCV (nucleotides (nt) 38-341) upstream of HSV thymidine kinase (HSV-tk, see FIG. 1). The 5′ nontranslated region of hepatitis C virus (HCV) functions as an internal ribosome entry site (IRES) and is essential for translation of HCV proteins. Transcription of the 5′ nontranslated region allows for IRES-mediated translation of HSV-tk, which converts GCV to the monophosphate which is further metabolized to the triphosphate a cytotoxic analog of GTP. […]
Translation of HSV-tk-mediated by HCV 5′UTR (cap-independent, HCV nucleotides 38-341) was confirmed by Western blotting analysis of the tk protein. […] The functional activity of tk was determined by administration of GCV to the cell culture medium. […] To confirm that tk expression was mediated by HCV IRES and not from read-through translation of the hygromycin gene, two control plasmids were generated that were identical to the parental, except for deletion of part of the 5′UTR necessary for IRES function. […]

untransfected HeLa cells = assay: GCV application to untransfected HeLa cells or cells expressing Core protein in place of tk; assay type: cell-based; details: GCV 10-100 uM
Experimental: Translation of HSV-tk-mediated by HCV 5′UTR (cap-independent, HCV nucleotides 38-341) was confirmed by Western blotting analysis of the tk protein. The vector was designed such that the authentic HCV Core protein translation start site (AUG at position 342 of the viral RNA) serves as the translation initiation site for the tk gene. The functional activity of tk was determined by administration of GCV to the cell culture medium. […] To confirm that tk expression was mediated by HCV IRES and not from read-through translation of the hygromycin gene, two control plasmids were generated that were identical to the parental, except for deletion of part of the 5′UTR necessary for IRES function. A reporter cell line was generated by electroporation of HeLa cells with pHyg-5′tk and selected with 250 μg/ml hygromycin. Single cell clones of stable HSV-tk expressing cells (HeLa 5′tk cells) were obtained according to standard limited dilution cloning techniques and functionally characterized for GCV-mediated cell killing.

HCV IRES = assay: Ratio of Core protein to RNA transcript as indicator of HCV IRES translational activity; assay type: cell-based, Hepatitis C virus; details: GCV resistant colonies, compared with control Rz BR1
Description: However, to eliminate differences in expression of the retroviral transcript (harboring the 5′ UTR Core transcript) between different Rz vector transduced cells, we used the ratio between expressed Core protein and RNA transcript levels as an indicator of HCV IRES translational activity.

HCV Core protein = details: for core protein expression, reduced to % of control RzBR1 transduced cells: GCV-resistant cells, remaining level relative to control RzBR1
Experimental: Upon construction of the retroviral vector pLHPM a cassette translating the HCV Core protein via the HCV IRES was placed into the 3′ part of the LTR transcript. Thereby, cells transduced with the library or single Rz candidates could be analyzed for the HCV Core protein expression by Western blotting. Western blotting was performed on protein lysates using an enhanced chemiluminescent blotting detection kit (Novex), and anti-HCV core monoclonal antibody (6C7 provided by Harry Greenberg, Stanford University). Blots were exposed to film and band intensities measured using a phosphoimager and ImageQuant software. […] Band volumes of HCV Core protein in Western blotting were analyzed by densitometry, normalized towards beta-actin and expressed as percentage relative to the control (RzBR1).

[2] = tested on: LTR-Core and HSV-tk transcripts; assay: Northern blotting of LTR-Core, HSV-tk and GAPDH transcripts; assay type: cell-based; details: normalized to GAPDH, relative to control Rz transduced 5′tk cells
Experimental: To assure that the observed reductions in Core protein were not caused by reduced levels of RNA transcript, Northern blotting analysis was performed on […] extracted from stable Rz expressors after GCV selection. Total RNA (15 μg per lane) extracted from cultures at 80% confluency was separated by formaldehyde/1% agarose gel electrophoresis and transferred to nylon membrane. The RNAs were probed for different parts of the two vector derived transcripts expressed in these cells: probes were directed against the tk part of the bicistronic transcript or against the Core portion of the retroviral vector transcript respectively. −^32P dCTP labelled probes were hybridized to the membrane in Quickhyb solution (Stratagene) at 65° C. After washing in 2×SSC/0.1%SDS and exposure to film, quantitation of signal was achieved by phosphimager analysis and computer-assisted denistometry as for the Western procedure. Levels of LTR-Core (4.8 kb) and HSV-tk (2.8 kb) transcripts were normalized to signals derived from GAPDH and expressed as percentage of the signal obtained from control Rz transduced 5′tk cells.

Herpes simplex virus thymidine kinase (HSV-tk), sequence (P0DTH5 whole entry): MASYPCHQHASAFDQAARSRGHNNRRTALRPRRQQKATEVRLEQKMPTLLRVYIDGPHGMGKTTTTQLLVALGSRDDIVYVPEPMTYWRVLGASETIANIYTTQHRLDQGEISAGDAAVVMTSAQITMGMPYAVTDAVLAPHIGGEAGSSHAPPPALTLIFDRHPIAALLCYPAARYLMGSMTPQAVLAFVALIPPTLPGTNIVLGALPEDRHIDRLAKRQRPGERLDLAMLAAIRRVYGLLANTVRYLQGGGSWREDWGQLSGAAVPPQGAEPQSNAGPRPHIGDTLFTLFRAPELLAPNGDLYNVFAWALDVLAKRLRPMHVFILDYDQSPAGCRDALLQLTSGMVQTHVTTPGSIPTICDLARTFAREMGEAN

Molecule | better substrate for HSV-tk compared to mammalian tk [1] | reduction of HCV IRES-dependent translatability (ratio Core protein/RNA transcript) (HCV IRES) [%] | core protein expression, reduced to % of control RzBR1 transduced cells (HCV Core protein) [%] | also measured
O=c1[nH]c(=O)n([C@@H]2O[C@H](CO)[C@@H](O)[C@@H]2F)cc1I [FIAU, 1-(2″-deoxy-2′-fluoro-1-β-D-arabinofuranosyl-5-ido)uracil] | about 1000 fold | – | – | –
Nc1nc(O)c2ncn(COC(CO)CO)c2n1 [GCV, [9-(1,3-dihydroxy-2-propoxy)methly] guanine] | about 1000 fold | – | – | cell death on continuous GCV application (HeLa 5′tk cells; continuous GCV 10-100 uM, HSV-tk expressing HeLa cells): complete cell death; GCV killing of selected HeLa 5′tk clone (HeLa 5′tk cells; exposure to 20 uM GCV): completely killed; effect of GCV application on tk-negative cells (untransfected HeLa cells): remained unaffected
HCV4: hairpin ribozyme, SEQ ID NO:50; binding sequence partially matches gamma subunit of human eIF2 (CTAACTTTAGAAACTAACCAGAGAAACACACGTTGTGGTACATTACCTGGTA; chemistry not given here) | – | 76 | 42 | –
HCV6: hairpin ribozyme, SEQ ID NO:52; targets human eIF2Bγ mRNA (TTCTTATTAGAAAGCTACCAGAGAAACACACGTTGTGGTACATTACCTGGTA; chemistry not given here) | – | 83 | 52 | –
HCV8: hairpin ribozyme conferring GCV resistance, SEQ ID NO:54 (AGCCGAGGAGAATCCCACCAGAGAAACACACGTTGTGGTACATTACCTGGTA; chemistry not given here) | – | – | – | reduction of Core transcript [2]: 20%; decrease (reduction) in Core protein compared to control Rz transduced cells (HCV Core protein; GCV resistant colonies, normalized to beta-actin, relative to control RzBR1): 95%
